{
  "source": "patent US20150352094A1",
  "about": "“USE OF FATTY ACID NIACIN CONJUGATES FOR TREATING DISEASES” (CATABASIS PHARMACEUTICALS, INC., priority 2013, published 2015)",
  "key": {"[1]": {"system": "SCD (steroyl CoA desaturase)", "test": "SREBP-1c target gene expression in HepG2 cells (real time PCR): SCD", "type": "cell-based", "conditions": "HepG2 cells stimulated with oleate, 50 μM, 6 hours", "experimental": "(§1) HepG2 cells (ATCC) were seeded at 20,000 cells per well in 96 well plates. After adhering overnight, growth media (10% FBS in DMEM) was removed and cells were serum starved for 24 hours in DMEM containing 1% fatty acid free bovine serum albumin (BSA, Sigma). […] Cells were incubated for 6 hours and then washed with PBS. RNA was reverse-transcribed using the cells to cDNA reagents according to standard protocols (outlined in Applied Biosystem StepOne Real-time PCR protocols). Real time PCR of transcripts was performed with Taqman assays for the three specific genes FASN (fatty acid synthase), SCD (steroyl CoA desaturase) and ApoA1 (apolipoprotein A1). In all three cases, 18S-VIC® was used as a normalization control."}, "[2]": {"system": "ApoB secretion in HepG2 cells", "conditions": "HepG2 cells, 50, 100 and 200 μM; compared to niacin at 5 mM", "procedure": "HepG2 cells (ATCC) are seeded at 10,000 cells per well in 96 well plates. After adhering overnight, growth media (10% FBS in DMEM) is removed and cells are serum starved for 24 hours in DMEM containing 0.1% fatty acid free bovine serum albumin (BSA, Sigma). Cells are then treated with a compound. […] All treatments are performed in triplicate. Simultaneous with compound treatment, ApoB secretion is stimulated with addition of 0.1 oleate complexed to fatty acid free BSA in a 5:1 molar ratio. Incubation with a compound and oleate is conducted for 24 hours. Media supernatants are removed and ApoB concentrations are measured using ELISA kits (Mabtech AB). Percent inhibition of ApoB secretion is determined by normalizing data to vehicle treated wells. For a given compound, an IC50 (concentration at which 50% of ApoB secretion is inhibited) can also be determined by using a 4 parameter-fit inhibition curve model (Graph Pad Prism®). In each experiment, cell viability is determined using the ATPlite 1-Step kit (Perkin Elmer), such that compound effects due to cytotoxicity can be monitored."}, "[3]": {"system": "ApoA1 (apolipoprotein A1)", "test": "SREBP-1c target gene expression in HepG2 cells (real time PCR): ApoA1", "type": "cell-based", "conditions": "HepG2 cells stimulated with oleate, 50 μM, 6 hours", "experimental": "as §1"}, "[4]": {"system": "FASN (fatty acid synthase)", "test": "SREBP-1c target gene expression in HepG2 cells (real time PCR): FASN", "type": "cell-based", "conditions": "HepG2 cells stimulated with oleate, 50 μM, 6 hours", "experimental": "as §1"}, "Male C57BL/6 mice": {"system": "Male C57BL/6 mice", "test": "Liver weight gain induced by Lomitapide 10 mg/kg in mice on high fat cholesterol diet", "type": "in vivo", "from_the_text": "The objective of this example is to determine if 1-8, a representative compound of the present invention, can abrogate the development of hepatic steatosis induced by oral administration of the MTP inhibitor Lomitapide for 7 days in normal mice.\nMale C57BL/6 mice were acclimated to the high fat cholesterol diet (D13093001; 1% cholesterol, 15% cacao butter, 40.5% sucrose and 1% corn oil (Research Diets, Inc. New Brunswick, N.J.) upon arrival at CRO facility. The test diet containing the compound (I-8) sufficient for approx. 3 kg of diet (i.e. 25 g of 1-8 from the invention), was prepared by adding the test compound to melted, hand warm cocoa butter and mixed for 5 min. This mix was then added to the master mix (containing the rest of the ingredients) and mixed thoroughly. The diet was frozen to −20° C. On the subsequent day, the diet was broken into small pellets (approx 5 g per piece) and freeze dried, and stored in vacuum sealed bags (approx 500 g) at −20° C. until used. This diet was designated D13093002. The diets were refreshed daily and unused diet is discarded. Lomitapide delivered via oral gavage formulation (10 mg/kg once daily) or vehicle was dosed as described in Table 1. The volume of each gavage dose delivered (mL/kg) was based on each individual animal's most recent recorded body weight. […]"}, "female APOE*3Leiden mice": {"system": "female APOE*3Leiden mice", "test": "Plasma cholesterol and triglycerides in APOE*3Leiden mice on high cholesterol Western type diet", "type": "in vivo", "conditions": "I-8 0.75% w/w in diet, atorvastatin 0.0015% w/w in diet", "experimental": "The study was conducted using female APOE*3Leiden mice (groups of each n=10) and one untreated reference control group on chow (n=5). To induce dyslipidemia, a high cholesterol Western type diet containing 1% cholesterol, 15% cacao butter, 40.5% sucrose and 1% corn oil (WTD) was fed to the mice for a total experimental period of 20 weeks (of which 4 weeks are a run-in period).\nThe dyslipidemic mice were grouped on the basis of plasma cholesterol at t=0 assayed in 4 h fasting blood. Mice with low cholesterol after the run-in period were excluded so that homogenous experimental groups were obtained. A group of reference mice (n=5) remained on a chow diet during the complete study period (normolipidemic reference mice).\nThis mix was then added to the master mix (containing the rest of the ingredients) and mixed thoroughly. The diet was frozen to −20° C. On the subsequent day, the diet was broken into small pellets (approx 5 g per piece) and freeze dried, and stored in vacuum sealed bags (approx 500 g) at −20° C. until use. The diets were refreshed daily and unused diet was discarded.\nEDTA plasma was collected in weeks −4, 0, 2 and 4 weeks."}, "mice": {"system": "mice", "test": "Liver weight gain induced by Lomitapide 1 and 3 mg/kg in mice on high fat cholesterol diet (second study)", "type": "in vivo", "conditions": "I-8 0.75% in diet from Day -7 with Lomitapide 1 or 3 mg/kg once daily, Days 1-7", "experimental": "A second study was conducted with a longer predosing of 1-8 (7 days versus 3 days) and lower doses of Lomitapide (1 and 3 mg/kg once daily) as described in Table 2. Starting on Day −7 the animals in Groups 1, 2, and 4 received a high-fat cholesterol diet (D13093001, Research Diets, Inc. New Brunswick, N.J.). Similarly, starting on Day −7 the animals in Groups 3 and 5 received a high-fat cholesterol diet w/0.75% 1-8 (D13093002, Research Diets, Inc.). On day −1 all mice received an oral gavage dose of vehicle. The baseline blood sample were collected from each mouse 90 minutes after the vehicle dose and stored as plasma. The volume of each gavage dose delivered (mL/kg) was based on each individual animal's most recent recorded body weight.\nObservations were recorded at least twice daily and at each sample collection time point. The presence or absence of any clinical abnormalities was recorded. Body weights were recorded on Day −7, and daily on Day −1 through Day 7 (AM). Interim blood samples were collected and a terminal blood sample was collected on Day 7 by intracardiac puncture following anesthetization with CO2. Each whole blood sample was transferred into tubes containing sodium heparin anticoagulant and placed on ice until processing. Each whole blood sample was centrifuged at 2200×g for 10 minutes at 5° C.+3° C. to isolate plasma. […]"}, "Healthy human volunteers": {"system": "Healthy human volunteers", "test": "Plasma triglycerides in healthy human volunteers after NIH high fat breakfast", "type": "in vivo", "experimental": "Healthy human volunteers were divided into 4 treatment groups. The first treatment group was a placebo group (n=6). The other three groups consisted a single oral dose of compound I-8 at either 300 mg (n=6), 1000 mg (n=7) or 2000 mg (n=4). All subjects were given an NIH high fat breakfast in order to induce an elevated level of triglycerides (In a typical NIH high fat breakfast, 450 calories are derived from fat). Compound I-8 was then administered as a single oral dose at the three indicated doses at three different time points: immediately following the high fat meal, 2 hours following the high fat meal and 4 hours following the high fat meal. At each of the time points, plasma triglyceride levels were determined according to standard protocols. […] Based on these dramatic effects on plasma triglycerides levels, compound I-8 and other fatty acid niacin conjugates disclosed in this invention are useful for the treatment of type I hyperlipoproteinemia and type 5 hyperlipoproteinemia."}, "[5]": {"system": "ApoB secretion in HepG2 cultures", "conditions": "media supernatants of HepG2 cultures (Jin et al. 1999); cited from earlier work"}, "[6]": {"system": "ApoA1 secretion in HepG2 cultures", "conditions": "media supernatants of HepG2 cultures (Jin et al. 1997); cited from earlier work"}},
  "data": [
    {"molecule": "CC/C=C\\C/C=C\\C/C=C\\C/C=C\\C/C=C\\C/C=C\\CCC(=O)NCCNC(=O)c1cccnc1", "note": "[Compound I-7, N-(2-(4Z,7Z,10Z,13Z,16Z,19Z)-docosa-4,7,10,13,16,19-hexaenamidoethyl)nicotinamide]", "values": [
      {"measurement": "SCD gene expression", "setting": "[1]", "value": "statistically significant inhibition"},
      {"measurement": "inhibition of ApoB secretion", "setting": "[2]", "value": "significant inhibition"},
      {"measurement": "ApoA1 gene expression", "setting": "[3]", "value": "increase"},
      {"measurement": "FASN gene expression", "setting": "[4]", "value": "statistically significant inhibition"}
    ]},
    {"molecule": "CC/C=C\\C/C=C\\C/C=C\\C/C=C\\C/C=C\\CCCC(=O)NCCNC(=O)c1cccnc1", "note": "[Compound I-8, N-(2-(5Z,8Z,11Z,14Z,17Z)-eicosa-5,8,11,14,17-pentaenamidoethyl)nicotinamide]", "values": [
      {"measurement": "Lomitapide-increased liver weight on cotreatment", "setting": "Male C57BL/6 mice; I-8 0.75% in diet with Lomitapide 10 mg/kg once daily, 7 days", "value": "completely abrogated"},
      {"measurement": "plasma cholesterol", "setting": "female APOE*3Leiden mice; after 4 weeks of treatment", "value": "Comparable level of cholesterol reduction"},
      {"measurement": "plasma triglycerides", "setting": "female APOE*3Leiden mice; after 4 weeks of treatment", "value": "significant reduction"},
      {"measurement": "plasma cholesterol", "setting": "female APOE*3Leiden mice; t=2 weeks of treatment", "value": "statistically significant reduction"},
      {"measurement": "SCD gene expression", "setting": "[1]", "value": "statistically significant inhibition"},
      {"measurement": "Lomitapide-increased liver weight on cotreatment", "setting": "mice", "value": "reduced"},
      {"measurement": "reduction in triglycerides", "setting": "Healthy human volunteers; 2 hour time point following the high fat meal", "value": "robust signal was still observed"},
      {"measurement": "reduction in triglycerides", "setting": "Healthy human volunteers; 4 hour time point following the high fat meal", "value": "robust signal was still observed"},
      {"measurement": "plasma triglycerides", "setting": "Healthy human volunteers; single oral dose 1000 mg, after NIH high fat breakfast", "value": "significant reduction"},
      {"measurement": "plasma triglycerides", "setting": "Healthy human volunteers; single oral dose 2000 mg, after NIH high fat breakfast", "value": "significant reduction"},
      {"measurement": "effect on plasma triglycerides", "setting": "Healthy human volunteers; single oral dose 300, 1000 or 2000 mg, after NIH high fat breakfast", "value": "dose-dependent effect"},
      {"measurement": "ApoA1 gene expression", "setting": "[3]", "value": "increase"},
      {"measurement": "FASN gene expression", "setting": "[4]", "value": "statistically significant inhibition"}
    ]},
    {"molecule": "O=C(NC1CCN(CCCCC2(C(=O)NCC(F)(F)F)c3ccccc3-c3ccccc32)CC1)c1ccccc1-c1ccc(C(F)(F)F)cc1", "note": "[Lomitapide, reference compound]", "values": [
      {"measurement": "increase in liver weight", "setting": "Male C57BL/6 mice; Lomitapide alone 10 mg/kg once daily oral gavage, one week, high fat cholesterol diet", "value": 15, "unit": "%"}
    ]},
    {"molecule": "O=C(O)c1cccnc1", "note": "[niacin]", "values": [
      {"measurement": "secretion of ApoB", "setting": "[5]", "value": "inhibiting"},
      {"measurement": "secretion of ApoA1", "setting": "[6]", "value": "increase"}
    ]}
  ]
}
